Assay results from article PMC10530836, “Synthesis, Molecular Docking, and Biological Evaluation of Novel Anthranilic Acid Hybrid and Its Diamides as Antispasmodics” (International Journal of Molecular Sciences, 2023).

Tests used:
[1] = test system: gastric smooth muscle preparations (SMPs) from Wistar rats; assay: Ex vivo smooth muscle relaxant activity; design: species or system rat; details: for Tonic relaxation: 5 × 10^−5 mol/L, SM pre-contracted with 1 × 10^−7 mol/L CCh
Description: The utilization of an SM preparation from the corpus of a rat stomach that had been pharmacologically pre-contracted was the main goal of our work. The excitatory neurotransmitter acetylcholine (ACh) in the enteric nervous system is appropriate for this purpose. It affects the digestive system by increasing the amplitude of digestive contractions and peristalsis in the stomach. We evaluated the viability of the SM using their stimulatory impact. Via muscarinic (M2 and M3) receptors, ACh and its counterpart cholinergic agonist carbachol (CCh, carbamylcholine) cause excitatory motor responses in GI SM cells. Unlike ACh, which breaks down quickly, CCh has a long-lasting response. Therefore, we used CCh to start the induced muscle contraction. […] A persistent, prolonged tonic contraction that is brought on by the extracellular inflow of Ca^2+ into SM cells occurs next. The relaxation effects of the tested compounds 3 and 4a–e were investigated by cumulative addition of the tested substances in concentrations of 1 × 10^−7, 5 × 10^−7, 1 × 10^−6, 5 × 10^−6, 1 × 10^−5, 5 × 10^−5, and 1 × 10^−4 mol/L at the plateau of the CCh-induced contraction. In order to measure relaxation, the percent decrease in contractile tension from the 1 × 10^−7 mol/L CCh-induced maximum was used. All subsequent reactions to chemicals were reported as a percentage of the submaximal SM contractile responses elicited by CCh, which were taken as 100% values and expressed as a base value for all subsequent responses (Figure 10A). Results were presented as mean ± SD.
SMPs with dimensions 1.0–1.5 mm wide and 10–12 mm long were obtained from adult male Wistar rats weighing about 270 g. […]
The pH of the solution was measured before each experiment using a pH-meter HI5521 (Hanna Instruments, Smithfield, RI, USA). […]
Experiments were performed to investigate the cumulative dose-dependent relaxation effects of compounds 3 and 4a–e on gastric SMPs, pre-contracted with CCh (1 × 10^−^7 mol/L). The CA of the SMPs and the changes in substance-evoked reactions were detected isometrically. […]

[2] = test system: Gram-positive bacteria, Gram-negative bacteria, yeasts and fungi; assay: Antimicrobial activity, whole panel; assay type: cell-based; details: agar well diffusion
Experimental: In our experiments, six Gram-positive bacteria, six Gram-negative bacteria, two yeasts, and six fungi were used. The hybrid molecule and its diamides were tested in vitro for their antimicrobial activity against human pathogenic bacteria and economically relevant phytopathogenic fungi. The inhibition zones of bacterial and fungal growth caused by the novel compounds are outlined in Table 3. The obtained results were compared to a known antispasmodic mebeverine and its precursors. […]
The antimicrobial activity of the samples was determined by the agar well diffusion method. […]
The inocula of the tested bacteria/yeasts was prepared by homogenization of a small amount of biomass in 5 mL of sterile 0.5% NaCl. […] The number of viable cells and fungal spores was determined using a bacterial counting chamber Thoma (Poly-Optik, GmbH, Bad Blankenburg, Germany). […] Next, the inoculated media were transferred in a quantity of 18 mL in sterile Petri plates (d = 90 mm) (Gosselin™, Hazebrouck, France) and allowed to harden. […]
The antimicrobial activity was determined by measuring the diameter of the inhibition zones around the wells on the 24th and 48th h of incubation. […]

Compound | Tonic relaxation [1] [%] | antimicrobial activity (overall, in words) [2] | effect on amplitude of spontaneous contractions ([1]; submaximal concentration of 5 × 10^−5 mol/L)
CC(=O)Nc1ccccc1C(=O)NCCc1cccc(Cl)c1 [Compound 4a, 2-acetamido-N-(3-chlorophenethyl)benzamide] | 52 | – | –
Nc1ccccc1C(=O)NCCc1cccc(Cl)c1 [Compound 3, 2-amino-N-(3-chlorophenethyl)benzamide] | 59 | very good antimicrobial activity | more than 50%
